Measurements as given in patent US11279703B2, “Fused pyrimidine compounds as BRD4 and JAK2 dual inhibitors and methods for use thereof” (APTOSE BIOSCIENCES INC., priority 2016, dated 2022).

How the values were obtained:
JAK2 = JAK2 (Homo sapiens (Human), UniProt O60674); test: HTRF kinase assay, JAK2; type: biochemical
Source text: A kinase assay with HTRF was used to observe JAK activity and calculate the IC50s of compounds disclosed herein. HTRF is an enzymatic assay used to determine the amount of phosphorylated peptide. FRET (Fluorescence Resonance Energy Transfer) is based on the transfer of energy between two fluorophores—a donor and an acceptor—when in close proximity. Molecular interactions between biomolecules can be assessed by coupling each partner with a fluorescent label and by detecting the level of energy transfer. The amount of phopshorylated peptide can be detected using a combination of a Eu 3+Cryptate labeled anti-phospho residue antibody, SA-XL665 and a biotinylated substrate. The signal is proportional to the concentration of phospho-residues.
Equipment Required • 1. […] Plate centrifuge • 3. Plate shaker • 4. […] Single channel and multi-channel pipettes • 6. Microplate reader (Pherastar)]
Stock and Final Assay Concentrations (FAC) • 1. All reference and test compounds are made at a concentration of 10 mM in DMSO. Compounds are serially diluted in DMSO and a FAC starting from 10 μM to 10 point 3 fold serial dilutions is arrived. For Ruxolitinib the starting FAC is 1 μM. FAC of DMSO is 1%. • 2. Enzyme stock and FAC
• JAK-1: Invtirogen Cat: PR8767C • JAK-2: Invtirogen Cat: PR7820B • JAK-3: Invtirogen Cat: PR7507B • 3. Substrate (synthetic peptide-Biotinylated-N-terminal tag-[…] from Biopeptide) stock and FAC
• Adenosine 5′-triphosphate disodium salt hydrate: Sigma Cat: A26209 • 5. […] Buffers • Base buffer (for 50 ml)
• HTRF buffer: • 50 mM Tris-HCl, pH—7.5 • 100 mM NaCl • 0.1% BSA • 0.05% Tween20 • 0.5 mM EDTA
To a 384 well black-plate: • 1. Add 17 μL of the buffer to each well of the 384-well black plate • 2. […] Add 5 μl of the enzyme to each well of the plate • 4. Add 10 μl of the substrate and ATP mix to all the wells • 5. Cover with plate sealer • 6. […] Incubate at room temperature for 1 hour on shaker • 8. […] Add 37.5 μL of the HTRF mix to these wells. • 9. Incubate the plate at room temperature on shaker for 45 minutes. • 10.
(§1) The percent inhibition is calculated in the excel analysis template and the IC50 values are subsequently determined using a sigmoidal dose-response curve (variable slope) using GraphPad Prism® 5 software.

BRD4-BD1 = BRD4-BD1 (Homo sapiens (Human), UniProt O60885); test: AlphaLisa bromodomain binding assay, BRD4-BD1; details: Table 6; read-out: BRD4(1) IC50
Source text: An AlphaLisa assay was used to observe bromodomain binding and measure IC50s for the compounds disclosed herein. An AlphaLisa assay is a bead-based assay used to detect interactions between bromodomains and polyacetylated histone peptides. Donor and acceptor beads bound to target and ligand are brought into proximity by this protein-protein interaction.
Equipment Required • 1. […] Plate centrifuge • 3. Plate shaker • 4. […] Single channel and multi-channel pipettes • 6. Microplate reader (Pherastar)
Stock and Final Assay Concentrations (FAC) • 1. All reference and test compounds are made at a concentration of 10 mM in DMSO. Compounds are serially diluted in DMSO and a FAC starting from 10 μM to 10 point 3 fold serial dilutions is arrived. FAC of DMSO is 1%. • 2. Enzyme stock and FAC
Biotinylated substrate (Acetylated histone H4, biotinylated substrate—cat no. AS64989-025, Anaspec) stock and FAC
• 4. Acceptor and donor beads stock and FAC
Buffers • For the enzyme and substrate dilution following buffer is used (for 50 ml) • HEPES: 50 mM 2.5 ml • NaCl: 25 mM 1.25 ml • DTT: 10 mM 0.05 ml • BSA: 0.1% 0.05 g • MilliQ water: 45.7 ml • For dilution of acceptor and donor beads AlphaLISA 5× epigenetics Buffer Perkin Elmer (Cat: AL008C) is used at 1× concentration.
Procedure • 1. […] Tap the plate gently • 3. […] Cover with plate sealer • 5. […] Incubate the plate at room temperature for 10 minutes • 7. Add 10 μl of the substrate • 8. Cover with plate sealer • 9. […] Cover with plate sealer • 14. […] Cover with plate sealer • 18.
as §1

JAK2, sequence (O60674 whole entry): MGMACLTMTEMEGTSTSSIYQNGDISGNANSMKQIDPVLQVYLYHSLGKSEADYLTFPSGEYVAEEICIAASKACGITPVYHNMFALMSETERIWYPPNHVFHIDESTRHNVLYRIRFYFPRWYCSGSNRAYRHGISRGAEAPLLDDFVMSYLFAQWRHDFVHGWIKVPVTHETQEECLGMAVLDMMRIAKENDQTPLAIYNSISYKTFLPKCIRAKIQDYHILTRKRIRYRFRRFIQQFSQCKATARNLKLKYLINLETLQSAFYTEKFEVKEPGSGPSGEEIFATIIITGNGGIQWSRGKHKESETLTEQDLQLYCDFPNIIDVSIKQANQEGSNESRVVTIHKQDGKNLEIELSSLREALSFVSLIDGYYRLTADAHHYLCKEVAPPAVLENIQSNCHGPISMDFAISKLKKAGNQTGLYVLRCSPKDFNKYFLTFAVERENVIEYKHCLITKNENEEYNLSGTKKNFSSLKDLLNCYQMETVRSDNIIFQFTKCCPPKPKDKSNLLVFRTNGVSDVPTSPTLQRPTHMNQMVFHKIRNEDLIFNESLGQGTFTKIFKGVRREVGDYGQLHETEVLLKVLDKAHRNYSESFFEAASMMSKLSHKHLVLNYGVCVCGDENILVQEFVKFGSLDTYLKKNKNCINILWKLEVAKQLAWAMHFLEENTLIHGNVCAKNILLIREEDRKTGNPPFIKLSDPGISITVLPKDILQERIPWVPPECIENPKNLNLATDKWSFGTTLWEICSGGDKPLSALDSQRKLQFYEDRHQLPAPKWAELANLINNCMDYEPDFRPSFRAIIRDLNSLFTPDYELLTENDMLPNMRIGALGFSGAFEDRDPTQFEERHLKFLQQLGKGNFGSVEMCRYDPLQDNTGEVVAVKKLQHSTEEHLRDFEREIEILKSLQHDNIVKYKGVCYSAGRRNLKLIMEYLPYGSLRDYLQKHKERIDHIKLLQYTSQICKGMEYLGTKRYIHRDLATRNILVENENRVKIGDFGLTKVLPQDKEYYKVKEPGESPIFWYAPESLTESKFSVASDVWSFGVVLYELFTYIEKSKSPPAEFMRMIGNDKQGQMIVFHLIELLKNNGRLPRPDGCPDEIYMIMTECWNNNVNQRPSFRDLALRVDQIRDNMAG

Compound	IC50 (JAK2; Table 3)	IC50 (JAK2; Table 6)	IC50 (BRD4-BD1)	IC50 (JAK2; Table 4)
CN1CCN(c2ccc(Nc3ncc4scc(-c5cccc(NS(=O)(=O)C(C)(C)C)c5)c4n3)cc2)CC1	0.0048 µM			
O=C1Cc2c(cccc2-c2ccnc(Nc3ccccc3)n2)N1		6.78 µM		
COc1cccc(Nc2nccc(-c3cccc4c3CC(=O)N4)n2)c1		2.25 µM		
Cc1cnc(Nc2ccc(N3CCN(C)CC3)cc2)nc1-n1ccc2c1CCNC2=O		5.92 µM	5.72 µM	
CN1CCN(c2ccc(Nc3nccc(Nc4cccc5c4CC(=O)N5)n3)cc2)CC1		0.387 µM		
CN1CCN(c2ccc(Nc3cc(Nc4cccc(NS(=O)(=O)C(C)(C)C)c4)c4sccc4n3)cc2)CC1		4.65 µM	2.86 µM	
Cc1cnc(Nc2ccc(N3CCN(C)CC3)cc2)nc1-n1ccc(C(=O)NC2CC2)c1		0.03 µM		
CC1CNCCC1Nc1nc(Nc2cccc(NS(=O)(=O)C(C)(C)C)c2)c2ccsc2n1 (centres unmarked)		10 µM	1.98 µM	
CC1(C)CNCCC1Nc1cc(Nc2cccc(NS(=O)(=O)C(C)(C)C)c2)c2ccsc2c1 (centres unmarked)		10 µM	2.83 µM	
CC1CNCCC1Nc1nc(Nc2ccc3c(c2)N(S(=O)(=O)C(C)(C)C)CC3)c2ccsc2n1 (centres unmarked)		10 µM	5.8 µM	
CC(C)(C)S(=O)(=O)Nc1cc(Nc2nc(NC3CCNCC3)nc3ccsc23)ccc1Cl		10 µM	3.27 µM	
CN1CCN(c2ccc(Nc3nc(Nc4ccc(Cl)c(NS(=O)(=O)C(C)(C)C)c4)c4sccc4n3)cc2)CC1		10 µM	2.68 µM	
CN1CCC(Nc2nc(Nc3ccc(Cl)c(NS(=O)(=O)C(C)(C)C)c3)c3sccc3n2)CC1		10 µM	0.9 µM	
Cc1sc2c(c1C)C(c1ccc(Cl)cc1)=N[C@@H](CC(=O)OC(C)(C)C)c1nnc(C)n1-2		10 µM		
CC1CNCC(C)C1Nc1nc(Nc2cccc(NS(=O)(=O)C(C)(C)C)c2)c2ccsc2n1 (centres unmarked)		10 µM	10 µM	
CC(C)(C)S(=O)(=O)Nc1cccc(Nc2nc(NC3CCN(c4ccccc4)CC3)nc3sccc23)c1		10 µM	10 µM	
CC(C)(C)S(=O)(=O)Nc1cccc(Nc2nc(NC3CCN(C(N)=O)CC3)nc3sccc23)c1		10 µM	3.03 µM	
CN(c1cccc(Nc2nc(NC3CCNCC3)nc3sccc23)c1)S(=O)(=O)C(C)(C)C		10 µM	0.87 µM	
CN1CCN(c2ccc(Nc3nc(-n4ccc(C(=O)NC5CC5)c4)c4ccsc4n3)cc2F)CC1		10 µM	10 µM	
CN1CCC(Nc2nc(Nc3cccc(N(C)S(=O)(=O)C(C)(C)C)c3)c3ccsc3n2)CC1		10 µM	0.94 µM	
CN1CCN(c2ccc(Nc3nc(Nc4cccc(NS(=O)(=O)C(C)(C)C)c4)c4ncsc4n3)cc2)CC1		10 µM	1.54 µM	
COc1nc(Nc2ccc(N3CCN(C)CC3)cc2)nc2c1ccn2-c1cccc(NS(=O)(=O)C(C)(C)C)c1		10 µM	5.16 µM	
CC(C)(C)S(=O)(=O)Nc1cccc(Nc2nc(NC3CCNC(=O)C3)nc3sccc23)c1 (centres unmarked)		10 µM	1.21 µM	
CN1CCN(c2ccc(Nc3nc(Nc4cccc(NS(=O)(=O)C(C)(C)C)c4)c4cc[nH]c4n3)cc2)CC1		0.032 µM	1.68 µM	
COc1nc(NC2CCNCC2)nc2c1ccn2-c1cccc(NS(=O)(=O)C(C)(C)C)c1		3.01 µM	0.122 µM	
CC(C)(C)S(=O)(=O)Nc1cccc(Nc2nc(NC3CC4CC3CN4)nc3sccc23)c1 (centres unmarked)		4.17 µM	0.26 µM	
CN1CCN(c2ccc(Nc3ncc4ccn(-c5ccc6c(c5)N(S(=O)(=O)C(C)(C)C)CC6)c4n3)cc2)CC1		0.032 µM	1.41 µM	

Compound	IC50 (JAK2; Table 3)	IC50 (JAK2; Table 6)	IC50 (BRD4-BD1)	IC50 (JAK2; Table 4)
CC(C)S(=O)(=O)Nc1cccc(-n2ccc3cnc(Nc4ccc(N5CCN(C)CC5)cc4)nc32)c1		0.0082 µM	1.02 µM	
CN1CCN(c2ccc(Nc3ncc4ccn(-c5ccc6c(c5)N(S(=O)(=O)C(C)(C)C)CC6)c4n3)cc2F)CC1		0.038 µM	1.3 µM	
CC(C)(C)S(=O)(=O)N1CCc2ccc(-n3ccc4cnc(Nc5ccc(N6CCNCC6)cc5)nc43)cc21		0.04 µM	1.94 µM	
CC(C)(C)S(=O)(=O)Nc1cccc(Nc2nc(NC3CCNCC3)nc3[nH]ccc23)c1		10 µM	10 µM	
CN1CCN(c2ccc(Nc3ncc4ccn(-c5cccc(NS(=O)(=O)C(C)(C)C)c5)c4n3)cc2Cl)CC1		0.008 µM	1.13 µM	
CC(C)(C)S(=O)(=O)Nc1cccc(-n2ccc3cnc(NC4CCNCC4)nc32)c1		10 µM	10 µM	
CN1CCC(Nc2ncc3ccn(-c4cccc(NS(=O)(=O)C(C)(C)C)c4)c3n2)CC1		1000 µM	0.284 µM	
CN1CCN(c2ccc(Nc3ncc4ccn(-c5ccc(F)c(NS(=O)(=O)C6CC6)c5)c4n3)cc2)CC1		0.0153 µM	1.49 µM	
Cc1ccc(-n2ccc3cnc(Nc4ccc(N5CCN(C)CC5)cc4)nc32)cc1NS(=O)(=O)C1CC1		0.0197 µM	3.06 µM	
O=S(=O)(Nc1cc(-n2ccc3cnc(Nc4ccc(N5CCNCC5)cc4)nc32)ccc1F)C1CC1		0.0143 µM	1.04 µM	
CC(C)(C)S(=O)(=O)Nc1cccc(-n2ccc3cnc(Nc4ccc(N5CCOCC5)cc4)nc32)c1		0.0244 µM	5.53 µM	
Cc1ccc(-n2ccc3cnc(Nc4ccc(N5CCN(C)CC5)cc4)nc32)cc1NS(=O)(=O)C(C)(C)C		0.23 µM	0.68 µM	
Cc1ccc(-n2ccc3cnc(Nc4ccc(N5CCNCC5)cc4)nc32)cc1NS(=O)(=O)C(C)(C)C		0.176 µM	0.641 µM	
Cc1ccc(-n2ccc3cnc(Nc4ccc(N5CCNCC5)cc4)nc32)cc1NS(=O)(=O)C1CC1		0.031 µM	2.2 µM	
CN1CCN(c2ccc(Nc3ncc4ccn(-c5ccc(Cl)c(NS(=O)(=O)C(C)(C)C)c5)c4n3)cc2)CC1		0.165 µM	0.481 µM	
CC(=O)N1CCN(c2ccc(Nc3ncc4ccn(-c5cccc(NS(=O)(=O)C(C)(C)C)c5)c4n3)cc2)CC1		0.045 µM		
CN1CCN(c2ccc(Nc3ncc4ccn(-c5cccc(NS(=O)(=O)C6CC6)c5)c4n3)cc2)CC1 [drawing 61]	0.0025 µM			
CN1CCN(c2ccc(Nc3ncc4ccn(-c5cccc(NS(=O)(=O)c6ccccc6)c5)c4n3)cc2)CC1 [drawing 62]	0.003 µM			
O=S(=O)(Nc1cccc(-n2ccc3cnc(Nc4ccc(N5CCNCC5)cc4)nc32)c1)C1CC1 [drawing 63]	0.002 µM			
CN1CCN(c2ccc(Nc3ncc4ccn(-c5cccc(NS(=O)(=O)C6CC6)c5)c4n3)cc2)CC1 [drawing 64]	0.0043 µM			
CN(C)C1CCN(c2ccc(Nc3ncc4ccn(-c5cccc(NS(=O)(=O)C(C)(C)C)c5)c4n3)cc2F)CC1 [drawing 65]	0.0044 µM			
Cc1noc(C)c1-c1cccc(-n2ccc3cnc(Nc4ccc(N5CCN(C)CC5)cc4)nc32)c1 [drawing 67]	0.003 µM			
O=S(=O)(Nc1cccc(-n2ccc3cnc(Nc4ccc(N5CCNCC5)cc4)nc32)c1)C1CC1 [drawing 68]	0.005 µM			
CN1CCN(c2ccc(Nc3ncc4ccn(-c5ccc(NS(=O)(=O)C(C)(C)C)cc5)c4n3)cc2)CC1 [drawing 69]				0.0007 µM
CN1CCN(c2ccc(Nc3ncc4ccn(-c5ccc(CNS(=O)(=O)C(C)(C)C)cc5)c4n3)cc2)CC1 [drawing 70]				0.00018 µM
CN1CCN(c2ccc(Nc3ncc4ccn(-c5ccc6c(c5)CCN6S(=O)(=O)C(C)(C)C)c4n3)cc2)CC1 [drawing 71]				0.0006 µM
